What was measured:
[1] = test system: BV-2 cells; test: TNFα release from BV-2 cells exposed to MMP-3 or MPP (Luminex); assay type: cell-based
Description: FIG. 6. MMP3-induces TNFα release in BV2 cells. […] After 24 h, the amount of TNFa released into the extracellular medium were determined in Luminex assays (see methods for details). n=6 ** p<0.01 compared to control.
(§1) Microglial cells are the primary immune cells in the CNS and are the major source of TNFα during neuroinflammation. Therefore, in this section, we examined the possible mechanisms that could regulate TNFα release during microglial activation. In particular, we examined whether PKCδ plays any role in the production and release of cytokines. For these studies, we used LPS as a microglial activator on BV2 cells, a widely used microglial cell line. BV-2 cells were exposed to LPS (1 μg/ml) in the presence or absence of PKCδ inhibitor rottlerin (1-3 μM). […] After 16 hr, cell-free supernatants were collected and TNFα levels were quantified using a multiplex bead-based luminex® assay system, as described in the methods.
Matrix metalloproteinases (MMPs) are a family of highly homologous protein-degrading zinc dependent endopeptidases. […] Therefore, we examined if MMP-3 could trigger TNFα release in BV-2 cells. […] Following 24 hr of MMP-3 treatment, supernatants were collected from extracellular medium and TNFα levels were determined using a Luminex immunoassay. […]

[2] = test system: primary mouse microglia; test: LPS-induced cytokine release from primary mouse microglia (Luminex immunoassay); assay type: cell-based
Description: FIG. 8. Effect of PKCδ inhibitor rottlerin on LPS-induced TNFα release from primary mouse microglia. Primary microglia were treated with 100 ng/ml LPS for 24 hr in the presence of PKCδ inhibitor rottlerin (1 μM and 3 μM). TNFα levels in the culture medium were quantified using a multiplex bead-based luminex® immunoassay. *** p<0.001 compared to controls; […] ### p<0.001 compared to LPS treatment; N=5.
(§2) FIG. 10. PKCδ inhibitor rottlerin suppresses pro-inflammatory cytokine release in primary mouse microglia. Primary microglia were isolated by differential adherence from post-natal mixed-glial cultures and purity verified to be more than 95% by immunocytochemistry. Primary microglia were treated with LPS (100 ng/ml) for 24 hrs or pre-treated with the PKCδ inhibitor rottlerin (1 μM) and then treated with LPS. After treatment, supernatants were collected and proinflammatory cytokine levels were assayed using a multiplexed luminex assay.
To extend the results obtained with the BV2 microglial cell line to primary microglia, we performed some preliminary studies in primary microglia isolated from post-natal day 2 (PND-2) C57 black mice as described previously (Floden et al. 2006). Briefly, the brain tissues from PND-2 mice were gently triturated in ice-cold Ca^2+ and Mg^2+-free HBSS. The cells were spun down and cultured using DMEM/F-12 medium containing 10% heat-inactivated FBS, antibiotics and essential nutrients, as described previously (Liu et al. 2002). After 12-14 days, microglia were harvested by the differential shaking method (350 rpm for 4 hr) and grown on poly-D lysine coated 24-well plates. Primary microglia were then fixed with 4% paraformaldehyde and processed for immunohistochemical staining using CD 11b (microglial marker) monoclonal antibody followed by Alexa 568-conjugated secondary antibody (red). Nuclei were stained with TO-PRO-3 dye (blue). The cells were viewed using a Nikon TE2000 microscope, and images were captured by SPOT digital camera. […] Additionally, we have established a microglia isolation procedure using magnetic labeled CD11b (MACs CD11b+) microbeads followed by AutoMACS cell sorting, which also yielded over 95% pure microglia.
We extended this study to primary microglia. CD11b+ primary microglia cultures were prepared, as described in the previous section. The primary microglial cultures were treated with 100 ng/ml LPS for 24 hr in the presence of various doses of the PKCδ inhibitor rottlerin (1 μM and 3 μM). TNFα levels in the culture medium were quantified using a multiplex bead-based Luminex® immunoassay. […] 3 μM rottlerin reduced LPS-induced TNFα release by 75%. Consistent with the BV2 cell line data presented in the original proposal, the new results provide further evidence that PKCδ can regulate TNFα release in primary microglia during neuroinflammation.
as §2, with “microglia. Primary Microglia were isolated” for “microglia. Primary microglia were isolated”

[3] = test system: PKCδ; conditions: dose range 1-3 μM; cited from earlier work
[4] = test system: BV-2 microglia; test: LPS induced cytokine release in BV-2 microglia (Luminex immunoassay); assay type: cell-based; conditions: BV-2 cells
Description: FIG. 1. […] BV-2 microglia were exposed to 1 μg/ml LPS with and without rottlerin (1 to 3 μM) for 16 hrs and cell free supernatants were collected.
BV-2 microglia were transfected with 20 nM PKCδ siRNA and non-specific siRNA. 24 hr later transfected cells were treated with LPS (1 μg/ml) for 16 hrs and cell free supernatants were collected. Specificity of PKCδ suppression was assessed by western blotting.
as §1
In this experiment, we examined whether PKCδ-siRNA mediated knockdown of PKCδ, would suppress LPS-induced TNFα release in BV-2 cells.

[5] = test system: nigral dopaminergic neurons; conditions: MPTP-induced animal model of Parkinson's disease; cited from earlier work
[6] = dose range 1-3 μM; cited from earlier work
[7] = test system: PKCδ promoter; test: PKCδ promoter luciferase reporter assay in BV-2 cells; assay type: cell-based, mouse
Excerpt: FIG. 4. PKCδ promoter structure and site-directed mutagenesis of NFkB binding sites. (A) The ˜2 kb fragment of mouse PKCδ promoter region (relative to the transcription start site) was cloned using genomic DNA prepared from MN9D cells by the fusion PCR technique. PKCδ promoter fragment was cloned into promoter-less pGL3-basic vector with a luciferase reporter gene (Luc). (B). Site-specific mutagenesis of two NFkB sites present in the PKCδ promoter region.
FIG. 5. Mutation of NFkB sites block TNFa induced PKCδ promoter activity. Briefly, BV2 cells, were transfected with promoter constructs coding for native or NFkB mutated PKCδ promoter (see FIG. 10). 12 h after transfection, cells were exposed to 30 ng/ml TNF with or without etanercept (ETA). 24 h later, cell lsyates were subject to luciferase assay.
Since PKCδ upregulation was observed during neuroinflammation (FIG. 4A), we sought to determine mechanisms that regulate PKCδ expression via transcriptional activation. We first cloned the full-length mouse PKCδ promoter (2 Kb) from genomic DNA using the fusion PCR technique (FIG. 5A). The resulting PKCδ promoter 2 Kb fragment was cloned into the promoter-less pGL3-luciferase reporter vector. Binding of the transcription factors to the PKCδ promoter region would result in the expression of luciferase enzyme. […]

[8] = LPS-stimulated primary mouse microglia
[9] = LPS and rottlerin treated samples, data not shown

C[n+]1ccc(-c2ccccc2)cc1 [MPP, 1-methyl-4-phenylpyridinium]
TNFα release from BV-2 cells ([1]; 24 hr exposure to 300 μM, data not shown): failed to release TNFα

CC(=O)c1c(O)c(C)c(O)c(Cc2c(O)c3c(c(C(=O)/C=C/c4ccccc4)c2O)OC(C)(C)C=C3)c1O [rottlerin, 3-[(8-Cinnamoyl-5,7-dihydroxy-2,2-dimethyl-2H-1-benzopyran-6-yl)methyl]-2′,4′,6′-trihydroxy-5-methylaceophenone]
release of IL-6 [2, 8]: decrease
release of IL-12 [2, 8]: decrease
reduction of LPS-induced TNFα release ([2]; primary microglia, 100 ng/ml LPS 24 hr, 3 μM rottlerin): 75%
LPS-induced TNFα levels ([2]; primary microglia, 100 ng/ml LPS 24 hr, rottlerin 1 μM and 3 μM, dose dependent): significantly suppressed
pro-inflammatory cytokine release ([2]; primary microglia, pre-treated with rottlerin 1 μM, LPS 100 ng/ml 24 hrs): suppresses
PKCδ inhibition [3]: effectively inhibits PKCδ
LPS-induced TNFα release ([4]; LPS 1 μg/ml, rottlerin 1-3 μM, 16 hr): dose-dependently blocked
LPS-induced IL-6 levels [4, 9]: no effect
LPS-induced IL-12 levels [4, 9]: no effect
nigral dopaminergic neuronal death [5]: protects
toxicity [6]: does not cause any toxicity

Etanercept
TNFα-induced PKCδ promoter activity ([7]; BV-2 cells, 30 ng/ml TNF with etanercept, 24 h, luciferase): blocked

ProMMP3: inactive proMMP-3
levels of TNFα compared to control ([1]; BV-2 cells, 400 ng/ml, 24 hr): did not induce any significant levels

TNFα
PKCδ promoter activity ([7]; BV-2 cells expressing 148 bp minimal PKCδ promoter construct, 30 ng/ml TNF): significant increase

— patent US20110059174A1, “PKCdelta REGULATES NEUROINFLAMMATORY EVENTS” (IOWA STATE UNIVERSITY RESEARCH FOUNDATION, INC., priority 2009, published 2011)
